The text below walks through data of patent publication US7449202B1, “Compositions and methods for prostate and kidney health and disorders, an herbal preparation” (Integrated Chinese Medicine Holdings, Ltd., priority 2003, dated 2008).

This assay is described as follows: case report: enlarged prostate with frequent urination. Type of assay: in vivo, human. To be noted: person, prescribed for enlarged prostate. The text has this:
The 9-herb composition and Incontinence. Person diagnosed with having an enlarged prostate suffered from frequent-urination problems including increased daily frequency and reduced volume. They had the urge to urinate every two hours and the amount was only a few drops. Their symptoms were attributed to old age. […] After a period of time on this regimen, their urinary frequency decreased. The person reports that they only go to the bathroom every four hours instead of every two hours during the day. They are able to urinate what they consider a normal amount of urine in a steady stream as opposed to the dribbling they experienced prior to taking the 9-herb composition. The biggest benefit they experienced, however, is sleeping through the night without having to get up and go to the bathroom. Because they are sleeping better, they have more energy throughout the day.

Structures are written as SMILES.

Regarding `CC(C)(C)NC(=O)[C@H]1CC[C@H]2[C@@H]3CC[C@H]4NC(=O)C=C[C@]4(C)[C@H]3CC[C@]12C` [PROSCAR], the urination problem entry was “did not alleviate the urination problem”.
